Experimental data taken from ChEMBL document CHEMBL4251691, “Thiazole Derivatives as Inhibitors for the Treatment of Cancer Cells Resistant” (ACS Med Chem Lett, 2018).

molecular target: L-lactate dehydrogenase (Homo sapiens, UniProt V9HWB9); assay: Inhibition of LDH (unknown origin) assessed as reduction in lactate production by cell-based assay

| SMILES | IC50 |
| --- | --- |
| Cc1ccc(/C=C/c2cccc(-c3nn(-c4nc(C(=O)O)cs4)c(CC4CC4)c3Cc3ccc(S(N)(=O)=O)c(F)c3)c2)s1 | < 1000 nM |
| Cc1ccc(-c2cc(-c3nn(-c4nc(C(=O)O)cs4)c(CC4CC4)c3Cc3ccc(S(N)(=O)=O)c(F)c3)ccc2F)cc1F | < 1000 nM |
| CC(=O)c1cc(-c2nn(-c3nc(C(=O)O)cs3)c(CC3CC3)c2Cc2ccc(S(N)(=O)=O)c(F)c2)ccc1F | < 1000 nM |

The next lines start with the values.

| IC50 | SMILES |
| --- | --- |
| < 1000 nM | CC1CC=C(c2cc(-c3nn(-c4nc(C(=O)O)cs4)c(CC4CC4)c3Cc3ccc(S(N)(=O)=O)c(F)c3)ccc2F)CC1 (stereo unspecified) |
| < 1000 nM | NS(=O)(=O)c1ccc(Cc2c(-c3ccc(F)c(C4=CCC(F)(F)CC4)c3)nn(-c3nc(C(=O)O)cs3)c2CC2CC2)cc1F |
| < 1000 nM | CC1CCCC=C1c1cc(-c2nn(-c3nc(C(=O)O)cs3)c(CC3CC3)c2Cc2ccc(S(N)(=O)=O)c(F)c2)ccc1F (stereo unspecified) |
